Consider 18 molecules from patent publication US20260327191A1, “GSK3a INHIBITORS AND METHODS OF USE THEREOF” (Blueprint Medicines Corporation, priority 2023, published 2026).

The structures appear in SMILES notation. Where a name gives a salt, the structure may show the parent alone.

In one test the target is T1, GSK3A (Homo sapiens, UniProt P49840).
T1 construct: expressed in transfected cells
Description: NanoBRET cellular target engagement assay, Nanoluc-GSK3A in HEK293 cells. Format: cell-based. Conditions: NanoBRET GSK3α IC50, HEK293 cells, tracer K-8, 2 hours, 37° C.

The target of test [1] is T2, GSK3B (Homo sapiens, UniProt P49841). Description: In vitro enzymatic activity assay, GSK3β. It counts as biochemical. Details: Full length human GSK3α or GSK3B expressed as N-terminal GST fusion proteins; GST (N); purchased Carna Biosciences (Japan); host or cells: baculovirus host. Conditions: 1.0 mM ATP, 1.0 μM peptide substrate, 120 min, 25° C, read-out: Enzyme GSK3β (IC50).

Test [2] addresses T2, GSK3B. Description: NanoBRET cellular target engagement assay, Nanoluc-GSK3B in HEK293 cells. It counts as cell-based. Set-up: expressed in transfected cells. Conditions: NanoBRET GSK3β IC50, HEK293 cells, tracer K-8, 2 hours, 37° C. A general note: BRET reads energy transfer from a luciferase to a nearby fluorophore.
The next test concerns the target T3, human GSK3α (Homo sapiens, UniProt P49840).
T3 construct: Full length human GSK3α or GSK3B expressed as N-terminal GST fusion proteins; GST (N); purchased Carna Biosciences (Japan); host or cells: baculovirus host
Description: In vitro enzymatic activity assay, GSK3α. Format: biochemical. The following applies: 1.0 mM ATP, 1.0 μM peptide substrate, 120 min, 25° C, read-out: Enzyme GSK3α (IC50).

T3 sequence (P49840 whole entry, the tested form may be a part): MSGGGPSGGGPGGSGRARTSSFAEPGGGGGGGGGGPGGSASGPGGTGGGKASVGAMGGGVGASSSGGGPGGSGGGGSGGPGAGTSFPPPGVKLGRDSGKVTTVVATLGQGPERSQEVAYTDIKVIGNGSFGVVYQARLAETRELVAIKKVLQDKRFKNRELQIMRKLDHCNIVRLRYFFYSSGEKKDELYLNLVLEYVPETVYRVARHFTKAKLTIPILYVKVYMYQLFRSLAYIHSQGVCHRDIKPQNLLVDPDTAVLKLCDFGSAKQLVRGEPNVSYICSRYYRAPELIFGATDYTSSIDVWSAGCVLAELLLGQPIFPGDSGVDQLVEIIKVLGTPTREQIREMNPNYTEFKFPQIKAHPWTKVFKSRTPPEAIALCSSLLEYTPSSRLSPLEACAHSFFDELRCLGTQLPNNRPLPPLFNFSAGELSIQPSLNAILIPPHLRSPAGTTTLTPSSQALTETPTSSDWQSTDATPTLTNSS
T1 sequence (P49840 whole entry): as the sequence (P49840 whole entry, the tested form may be a part) above
T2 sequence (P49841 whole entry, the tested form may be a part): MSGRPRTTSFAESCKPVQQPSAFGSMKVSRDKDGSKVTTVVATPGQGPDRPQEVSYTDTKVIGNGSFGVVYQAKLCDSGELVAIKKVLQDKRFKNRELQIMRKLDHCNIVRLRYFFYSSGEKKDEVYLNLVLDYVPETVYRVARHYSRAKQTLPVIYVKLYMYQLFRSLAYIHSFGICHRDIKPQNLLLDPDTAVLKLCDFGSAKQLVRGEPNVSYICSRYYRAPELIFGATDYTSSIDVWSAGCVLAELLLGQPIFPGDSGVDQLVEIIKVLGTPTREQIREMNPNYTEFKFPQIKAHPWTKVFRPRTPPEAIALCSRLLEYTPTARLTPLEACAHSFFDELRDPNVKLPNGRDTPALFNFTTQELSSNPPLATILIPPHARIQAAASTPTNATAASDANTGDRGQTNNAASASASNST

By IC50 is commonly meant the point on the concentration scale where inhibition reaches its midpoint. On to `Nc1ncn(-c2c(Cl)cccc2Cl)c(=O)c1C(=O)Nc1cncc([C@H]2CCOCCN2)c1` (single isomer, unassigned) [Example 215, (R)—N-(5-(1,4-oxazepan-5-yl)pyridin-3-yl)-4-amino-1-(2,6-dichlorophenyl)-6-oxo-1,6-dihydropyrimidine-5-carboxamide or (S)—N-(5-(1,4-oxazepan-5-yl)pyridin-3-yl)-4-amino-1-(2,6-dichlorophenyl)-6-oxo-1,6-dihydropyrimidine-5-carboxamide], for which the half-inhibitory concentration (IC50) on GSK3A came to 0.0085 µM; at GSK3B [1], 0.5 µM; at GSK3B [2], 0.69 µM; on human GSK3α, 0.0072 µM.

For the molecule `Cc1cccc(Cl)c1-n1cnc(N)c(C(=O)Nc2cccc([C@@H]3CCCN3)c2F)c1=O` (single isomer, unassigned) [Example 217, (S)-4-amino-1-((S)-2-chloro-6-methylphenyl)-N-(2-fluoro-3-(pyrrolidin-2-yl)phenyl)-6-oxo-1,6-dihydropyrimidine-5-carboxamide or (R)-4-amino-1-((S)-2-chloro-6-methylphenyl)-N-(2-fluoro-3-(pyrrolidin-2-yl)phenyl)-6-oxo-1,6-dihydropyrimidine-5-carboxamide], the half-inhibitory concentration (IC50) against GSK3A was determined as 0.008 µM; at GSK3B [1], 0.305 µM; against GSK3B [2] it was 0.424 µM; on human GSK3α, 0.0078 µM.

For the molecule `CCc1cc(C)c(-n2cnc(N)c(C(=O)Nc3cncc([C@@H](C)N)c3)c2=O)c(C)c1` (single isomer, unassigned) [Example 218, (R)-4-amino-N-(5-(1-aminoethyl)pyridin-3-yl)-1-(4-ethyl-2,6-dimethylphenyl)-6-oxo-1,6-dihydropyrimidine-5-carboxamide or (S)-4-amino-N-(5-(1-aminoethyl)pyridin-3-yl)-1-(4-ethyl-2,6-dimethylphenyl)-6-oxo-1,6-dihydropyrimidine-5-carboxamide], the IC50 came to 0.0056 µM against GSK3A, 0.421 µM on GSK3B [1], 0.401 µM on GSK3B [2] and 0.0108 µM on human GSK3α.

As for `CCOc1cc(Cl)c(-n2cnc(N)c(C(=O)Nc3cncc([C@@H](C)N)n3)c2=O)c(Cl)c1` (single isomer, unassigned) [Example 219, (R)-4-amino-N-(6-(1-aminoethyl)pyrazin-2-yl)-1-(2,6-dichloro-4-ethoxyphenyl)-6-oxo-1,6-dihydropyrimidine-5-carboxamide or (S)-4-amino-N-(6-(1-aminoethyl)pyrazin-2-yl)-1-(2,6-dichloro-4-ethoxyphenyl)-6-oxo-1,6-dihydropyrimidine-5-carboxamide], the half-inhibitory concentration (IC50) amounted to 0.0038 µM against GSK3A, 0.271 µM at GSK3B [1], 0.187 µM on GSK3B [2] and 0.0054 µM on human GSK3α.

As for `COc1cc(Cl)c(-n2cnc(N)c(C(=O)Nc3cc(F)cc([C@H]4CCCCN4)c3)c2=O)c(Cl)c1` (single isomer, unassigned) [Example 222, (R)-4-amino-1-(2,6-dichloro-4-methoxyphenyl)-N-(3-fluoro-5-(piperidin-2-yl)phenyl)-6-oxo-1,6-dihydropyrimidine-5-carboxamide or (S)-4-amino-1-(2,6-dichloro-4-methoxyphenyl)-N-(3-fluoro-5-(piperidin-2-yl)phenyl)-6-oxo-1,6-dihydropyrimidine-5-carboxamide], the IC50 was 0.0046 µM against GSK3A, 0.0992 µM at GSK3B [1], 0.148 µM against GSK3B [2] and 0.0021 µM on human GSK3α.

As for `CCNCc1cncc(NC(=O)c2c(N)ncn(-c3c(Cl)cccc3Cl)c2=O)c1` [Example 5, 4-amino-1-(2,6-dichlorophenyl)-N-(5-((ethylamino)methyl)pyridin-3-yl)-6-oxo-1,6-dihydropyrimidine-5-carboxamide], the IC50 was 0.0062 µM at GSK3A, 0.378 µM at GSK3B [1], 0.383 µM against GSK3B [2] and 0.0083 µM at human GSK3α.

Turning to `CN[C@H](C)c1cc(F)cc(NC(=O)c2c(N)ncn(-c3c(Cl)cccc3Cl)c2=O)c1` [Example 6, (R)-4-amino-1-(2,6-dichlorophenyl)-N-(3-fluoro-5-(1-(methylamino)ethyl)phenyl)-6-oxo-1,6-dihydropyrimidine-5-carboxamide trifluoroacetate], the concentration for half-maximal inhibition (IC50) came to 0.0065 µM against GSK3A, 0.292 µM on GSK3B [1], 0.352 µM against GSK3B [2] and 0.0072 µM on human GSK3α.

For the molecule `CCNCc1cncc(NC(=O)c2c(N)ncn(-c3c(Cl)cc(OC(F)F)cc3Cl)c2=O)c1` [Example 10, 4-amino-1-(2,6-dichloro-4-(difluoromethoxy)phenyl)-N-(5-((ethylamino)methyl)pyridin-3-yl)-6-oxo-1,6-dihydropyrimidine-5-carboxamide], the IC50 on GSK3A stood at 0.0069 µM; at GSK3B [1], 0.395 µM; against GSK3B [2], 0.371 µM; at human GSK3α, 0.0088 µM.

For the molecule `CCNCc1cncc(NC(=O)c2c(N)ncn(-c3c(Cl)cc(C(F)F)cc3Cl)c2=O)c1` [Example 14, 4-amino-1-(2,6-dichloro-4-(difluoromethyl)phenyl)-N-(5-((ethylamino)methyl)pyridin-3-yl)-6-oxo-1,6-dihydropyrimidine-5-carboxamide], the IC50 was found to be 0.004 µM on GSK3A, 0.318 µM at GSK3B [1], 0.231 µM on GSK3B [2] and 0.0064 µM on human GSK3α.

With `COCc1cc(Cl)c(-n2cnc(N)c(C(=O)Nc3cncc(C(C)(C)N)c3)c2=O)c(Cl)c1` [Example 15, 4-amino-N-(5-(2-aminopropan-2-yl)pyridin-3-yl)-1-(2,6-dichloro-4-(methoxymethyl)phenyl)-6-oxo-1,6-dihydropyrimidine-5-carboxamide], the concentration for half-maximal inhibition (IC50) against GSK3A is 0.0022 µM; on GSK3B [1], 0.208 µM; against GSK3B [2] it was 0.119 µM; on human GSK3α, 0.0045 µM.

On to `CCNCc1cncc(NC(=O)c2c(N)ncn(-c3c(Cl)cc(OC)cc3Cl)c2=O)c1` [Example 17, 4-amino-1-(2,6-dichloro-4-methoxyphenyl)-N-(5-((ethylamino)methyl)pyridin-3-yl)-6-oxo-1,6-dihydropyrimidine-5-carboxamide], for which the IC50 is 0.0038 µM at GSK3A, 0.34 µM on GSK3B [1], 0.271 µM on GSK3B [2] and 0.0078 µM at human GSK3α.

As to `COc1cc(Cl)c(-n2cnc(N)c(C(=O)Nc3cncc(CNC(C)C)c3)c2=O)c(Cl)c1` [Example 20, 4-amino-1-(2,6-dichloro-4-methoxyphenyl)-N-(5-((isopropylamino)methyl)pyridin-3-yl)-6-oxo-1,6-dihydropyrimidine-5-carboxamide], the half-inhibitory concentration (IC50) was determined as 0.0072 µM against GSK3A, 0.685 µM at GSK3B [1], 0.396 µM at GSK3B [2] and 0.014 µM at human GSK3α.

Turning to `COc1cc(Cl)c(-n2cnc(N)c(C(=O)Nc3cncc(C4(N)CCCC4)c3)c2=O)c(Cl)c1` [Example 21, 4-amino-N-(5-(1-aminocyclopentyl)pyridin-3-yl)-1-(2,6-dichloro-4-methoxyphenyl)-6-oxo-1,6-dihydropyrimidine-5-carboxamide], the concentration for half-maximal inhibition (IC50) against GSK3A was found to be 0.0026 µM; on GSK3B [1], 0.217 µM; against GSK3B [2], 0.145 µM; at human GSK3α, 0.0032 µM.

Consider `CCNCc1cncc(NC(=O)c2c(N)ncn(-c3c(Cl)cc(C(F)(F)F)cc3Cl)c2=O)c1` [Example 22, 4-amino-1-(2,6-dichloro-4-(trifluoromethyl)phenyl)-N-(5-((ethylamino)methyl)pyridin-3-yl)-6-oxo-1,6-dihydropyrimidine-5-carboxamide], for which the 50% inhibitory concentration (IC50) against GSK3A came to 0.0056 µM; on GSK3B [1], 0.389 µM; on GSK3B [2] it was 0.334 µM; at human GSK3α, 0.0084 µM.

Turning to `Nc1ncn(-c2c(Cl)cc(C(F)(F)F)cc2Cl)c(=O)c1C(=O)Nc1cncc(CNCCO)c1` [Example 23, 4-amino-1-(2,6-dichloro-4-(trifluoromethyl)phenyl)-N-(5-(((2-hydroxyethyl)amino)methyl)pyridin-3-yl)-6-oxo-1,6-dihydropyrimidine-5-carboxamide], the half-maximal inhibitory concentration (IC50) came out at 0.0043 µM against GSK3A, 0.343 µM on GSK3B [1], 0.239 µM against GSK3B [2] and 0.005 µM on human GSK3α.

For the molecule `CCOc1cc(Cl)c(-n2cnc(N)c(C(=O)Nc3cncc(CNCCOC)c3)c2=O)c(Cl)c1` [Example 25, 4-amino-1-(2,6-dichloro-4-ethoxyphenyl)-N-(5-(((2-methoxyethyl)amino)methyl)pyridin-3-yl)-6-oxo-1,6-dihydropyrimidine-5-carboxamide], the IC50 against GSK3A was 0.0075 µM; on GSK3B [1], 0.692 µM; at GSK3B [2], 0.715 µM; at human GSK3α it was 0.0139 µM.

Turning to `CCOc1cc(Cl)c(-n2cnc(N)c(C(=O)Nc3cncc(CNCCO)c3)c2=O)c(Cl)c1` [Example 26, 4-amino-1-(2,6-dichloro-4-ethoxyphenyl)-N-(5-(((2-hydroxyethyl)amino)methyl)pyridin-3-yl)-6-oxo-1,6-dihydropyrimidine-5-carboxamide], the half-maximal inhibitory concentration (IC50) stood at 0.0044 µM at GSK3A, 0.327 µM at GSK3B [1], 0.269 µM at GSK3B [2] and 0.0055 µM at human GSK3α.

As for `CCOc1cc(Cl)c(-n2cnc(N)c(C(=O)Nc3cnnc(C(N)=O)c3)c2=O)c(Cl)c1` [Example 28, 5-(4-amino-1-(2,6-dichloro-4-ethoxyphenyl)-6-oxo-1,6-dihydropyrimidine-5-carboxamido)pyridazine-3-carboxamide], the IC50 on GSK3A came to 0.009 µM; at GSK3B [1], 0.32 µM; against GSK3B [2] it was 0.699 µM; on human GSK3α, 0.0096 µM.
